Data from patent US11459410B2, “High-purity amphipathic arylsulfonic acid amine salt vinyl monomer and copolymer thereof” (TOSOH FINECHEM CORPORATION, priority 2017, dated 2022).
Like-named read-outs stand apart in the source and are kept apart here.

Key:
[1] = Evaluation 1 (Solubility): saturation solubility in water, THF, NMP and toluene; format: physicochemical; conditions: for Solubility NMP: N-methylpyrrolidone; for Solubility NMP / Solubility THF / Solubility Toluene / Solubility Water: 25° C., saturation solubility; for Solubility THF: tetrahydrofuran
Protocol: 2 g each of water, tetrahydrofuran (THF), N-methylpyrrolidone (NMP), and toluene were added to glass screw tube bottles. Small portions of styrenesulfonic acid salts were added thereto at 25° C., and the solubilities thereof were observed while shaking the bottles by hand. In each case, the point at which the solid started to remain was determined to be saturation solubility, and the solubility was calculated by the following Equation. Solubility (wt %)=A/(S+A)×100
A: Weight of amine added (g)

[2] = Evaluation 2 (Storage Stability): accelerated test of polymerization stability of the solid at 60° C.; conditions: for Comprehensive Evaluation (storage stability): sealed bottle, one week
Protocol: 2.0 g of the solid of styrenesulfonic acid salt was added to glass screw tube bottle, and the bottle was sealed with a plug. Then, the bottle was placed in a box dryer at 60° C., and an accelerated test of polymerization stability was performed.
Sampling was performed every other day for a total of one week to check properties, odor, pH change, and the progress of polymerization by heat.
TOASS was dissolved in dimethylformamide and subjected to GPC analysis using a 10 mmol/L lithium bromide dimethylformamide solution as eluent.

| Molecule | Solubility in water (in words) [1] | Monomer (area %), after one week ([2]; GPC, solid, 60° C.) | Odor, after one week ([2]; solid, 60° C.) | Properties on the first day of evaluation ([2]; solid, 60° C., first day) | Solubility (in words) [1] | Solubility NMP [1] | Solubility in an organic solvent (in words) ([1]; organic solvent) | Solubility THF [1] | Solubility Toluene [1] | Solubility in water (in words) ([1]; water) | Solubility Water ([1]; water) | Monomer (area %), before start of reaction ([2]; GPC, before start of the 60° C. test) | Odor, before start of reaction ([2]; before start of the 60° C. test) | Comprehensive Evaluation (storage stability) ([2]; solid, 60° C.) | Solubility (in words) ([1]; overall, Evaluation 1) |
| --- | --- | --- | --- | --- | --- | --- | --- | --- | --- | --- | --- | --- | --- | --- | --- |
| C=Cc1ccc(S(=O)(=O)O)cc1.CCCCCCCCN(CCCCCCCC)CCCCCCCC [TOASS, parastyrenesulfonic acid n-trioctylamine, reference compound] | poor water solubility | 0.00 area % | Yes | yellow translucent plastic form |  |  |  |  |  |  |  |  |  |  |  |
| C=Cc1ccc(S(=O)(=O)O)cc1.CCCCCCCCN [MOASS, parastyrenesulfonic acid n-monooctylamine salt, reference compound] |  | 92.20 area % | No |  | did not have sufficient solubility |  |  |  |  |  |  |  |  |  |  |
| parastyrenesulfonic acid N,N-dimethylcyclohexylamine salt [CHASS] |  | 97.24 area % | No |  |  | ∘ (Easily soluble (10 wt % or more)) | sufficient solubility in an organic solvent | ∘ (Easily soluble (10 wt % or more)) | Δ (Soluble (1 to 10 wt %)) | soluble in water | ∘ (Easily soluble (10 wt % or more)) | 100 area % | No | ∘ |  |
| parastyrenesulfonic acid dicyclohexylamine salt [DCHASS, reference compound] |  |  |  |  |  | ∘ (Easily soluble (10 wt % or more)) |  | x (Insoluble (1 wt % or less)) | x (Insoluble (1 wt % or less)) |  | x (Insoluble (1 wt % or less)) |  |  |  | did not have sufficient solubility |
| parastyrenesulfonic acid N,N-diisopropylethylamine salt [DIPEASS] |  | 92.40 area % | No |  |  | ∘ (Easily soluble (10 wt % or more)) |  | Δ (Soluble (1 to 10 wt %)) | Δ (Soluble (1 to 10 wt %)) |  | ∘ (Easily soluble (10 wt % or more)) |  |  | ∘ |  |
